# Measurements from PubChem BioAssay (NCI).
#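 The compound was tested at five concentrations on cells cultured in 96-well plates, with a 48-hour exposure period. TGI: total growth inhibition.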
# Tests used:
# Assay in all cases: NCI tumour cell line growth inhibition, 48 h
# HOP-92 NSCLC = tested on: HOP-92 NSCLC
# OVCAR-8 ovarian = tested on: OVCAR-8 ovarian
# SNB-19 CNS = tested on: SNB-19 CNS
# DMS 273 small cell lung = tested on: DMS 273 small cell lung
# HCC-2998 colon = tested on: HCC-2998 colon
# UACC-257 melanoma = tested on: UACC-257 melanoma
# XF 498 CNS = tested on: XF 498 CNS
# HL-60(TB) leukemia = tested on: HL-60(TB) leukemia
# CAKI-1 renal = tested on: CAKI-1 renal
# SF-539 CNS = tested on: SF-539 CNS
# DLD-1 colon = tested on: DLD-1 colon
# MOLT-4 leukemia = tested on: MOLT-4 leukemia
# KM20L2 colon = tested on: KM20L2 colon
# SK-MEL-2 melanoma = tested on: SK-MEL-2 melanoma
# SK-MEL-28 melanoma = tested on: SK-MEL-28 melanoma
# RPMI-8226 leukemia = tested on: RPMI-8226 leukemia
# SW-620 colon = tested on: SW-620 colon
# SF-268 CNS = tested on: SF-268 CNS
# HOP-62 NSCLC = tested on: HOP-62 NSCLC
# A549 NSCLC = tested on: A549 NSCLC
# SNB-75 CNS = tested on: SNB-75 CNS
# NCI-H23 lung = tested on: NCI-H23 lung
# CCRF-CEM leukemia = tested on: CCRF-CEM leukemia
# 786-0 renal = tested on: 786-0 renal
# HCT-15 colon = tested on: HCT-15 colon
# TK-10 renal = tested on: TK-10 renal
# KM12 colon = tested on: KM12 colon
# COLO 205 colon = tested on: COLO 205 colon
# A498 renal = tested on: A498 renal
# EKVX NSCLC = tested on: EKVX NSCLC
# DMS 114 small cell lung = tested on: DMS 114 small cell lung
# M14 melanoma = tested on: M14 melanoma
# LXFL 529 NSCLC = tested on: LXFL 529 NSCLC
# OVCAR-4 ovarian = tested on: OVCAR-4 ovarian
# HOP-18 NSCLC = tested on: HOP-18 NSCLC
# NCI-H460 lung = tested on: NCI-H460 lung
# MALME-3M melanoma = tested on: MALME-3M melanoma
# SK-MEL-5 melanoma = tested on: SK-MEL-5 melanoma
# OVCAR-5 ovarian = tested on: OVCAR-5 ovarian
# NCI-H522 lung = tested on: NCI-H522 lung
# SF-295 CNS = tested on: SF-295 CNS
# SNB-78 CNS = tested on: SNB-78 CNS
# K-562 leukemia = tested on: K-562 leukemia
# UACC-62 melanoma = tested on: UACC-62 melanoma
# OVCAR-3 ovarian = tested on: OVCAR-3 ovarian
# ACHN renal = tested on: ACHN renal
# M19-MEL melanoma = tested on: M19-MEL melanoma
# IGROV1 ovarian = tested on: IGROV1 ovarian
# UO-31 renal = tested on: UO-31 renal
# U251 CNS = tested on: U251 CNS
# NCI-H226 lung = tested on: NCI-H226 lung
# SK-OV-3 ovarian = tested on: SK-OV-3 ovarian
# SN12C renal = tested on: SN12C renal
# HCT-116 colon = tested on: HCT-116 colon
# LOX IMVI melanoma = tested on: LOX IMVI melanoma
# RXF 393 renal = tested on: RXF 393 renal
# HT29 colon = tested on: HT29 colon
# SR leukemia = tested on: SR leukemia
smiles,measurement,setting,value
CCn1c(=O)nc2n(-c3ccccc3)c3ccccc3nc-2c1=O,TGI,HOP-92 NSCLC,62.4 µM
same,TGI,OVCAR-8 ovarian,67.9 µM
same,TGI,SNB-19 CNS,76 µM
same,TGI,DMS 273 small cell lung,34.7 µM
same,TGI,HCC-2998 colon,94 µM
same,TGI,UACC-257 melanoma,38.7 µM
same,TGI,XF 498 CNS,34.5 µM
same,TGI,HL-60(TB) leukemia,38.5 µM
same,TGI,CAKI-1 renal,> 100 µM
same,TGI,SF-539 CNS,38.8 µM
same,TGI,DLD-1 colon,> 100 µM
same,TGI,MOLT-4 leukemia,40.4 µM
same,TGI,KM20L2 colon,85.4 µM
same,TGI,SK-MEL-2 melanoma,76.3 µM
same,TGI,SK-MEL-28 melanoma,> 100 µM
same,TGI,RPMI-8226 leukemia,> 100 µM
same,TGI,SW-620 colon,86.5 µM
same,TGI,SF-268 CNS,85.1 µM
same,TGI,HOP-62 NSCLC,> 100 µM
same,TGI,A549 NSCLC,> 100 µM
same,TGI,SNB-75 CNS,> 100 µM
same,TGI,NCI-H23 lung,> 100 µM
same,TGI,CCRF-CEM leukemia,72.3 µM
same,TGI,786-0 renal,> 100 µM
same,TGI,HCT-15 colon,65.4 µM
same,TGI,TK-10 renal,> 100 µM
same,TGI,KM12 colon,> 100 µM
same,TGI,COLO 205 colon,16 µM
same,TGI,A498 renal,> 100 µM
same,TGI,EKVX NSCLC,> 100 µM
same,TGI,DMS 114 small cell lung,30.3 µM
same,TGI,M14 melanoma,35 µM
same,TGI,LXFL 529 NSCLC,> 100 µM
same,TGI,OVCAR-4 ovarian,25.9 µM
same,TGI,HOP-18 NSCLC,> 100 µM
same,TGI,NCI-H460 lung,> 100 µM
same,TGI,MALME-3M melanoma,31.7 µM
same,TGI,SK-MEL-5 melanoma,22.8 µM
same,TGI,OVCAR-5 ovarian,66.4 µM
same,TGI,NCI-H522 lung,> 100 µM
same,TGI,SF-295 CNS,> 100 µM
same,TGI,SNB-78 CNS,> 100 µM
same,TGI,K-562 leukemia,61.2 µM
same,TGI,UACC-62 melanoma,31.9 µM
same,TGI,OVCAR-3 ovarian,43.1 µM
same,TGI,ACHN renal,68.7 µM
same,TGI,M19-MEL melanoma,25.2 µM
same,TGI,IGROV1 ovarian,74.2 µM
same,TGI,UO-31 renal,> 100 µM
same,TGI,U251 CNS,75.2 µM
same,TGI,NCI-H226 lung,63.8 µM
same,TGI,SK-OV-3 ovarian,> 100 µM
same,TGI,SN12C renal,64.8 µM
COc1ccc2c(c1)[n+](=O)c(C(=O)C/C(=N/NC(=O)c1ccccc1O)C(=O)Nc1ccc(Cl)c(C(F)(F)F)c1)c(C)n2[O-],TGI,HOP-92 NSCLC,> 100 µM
same,TGI,OVCAR-8 ovarian,> 100 µM
same,TGI,HCT-116 colon,> 100 µM
same,TGI,SNB-19 CNS,> 100 µM
same,TGI,DMS 273 small cell lung,> 100 µM
same,TGI,HCC-2998 colon,> 100 µM
same,TGI,UACC-257 melanoma,> 100 µM
same,TGI,XF 498 CNS,> 100 µM
same,TGI,SF-539 CNS,> 100 µM
same,TGI,DLD-1 colon,> 100 µM
same,TGI,MOLT-4 leukemia,> 100 µM
same,TGI,KM20L2 colon,> 100 µM
same,TGI,SK-MEL-2 melanoma,> 100 µM
same,TGI,SK-MEL-28 melanoma,> 100 µM
same,TGI,SW-620 colon,> 100 µM
same,TGI,SF-268 CNS,> 100 µM
same,TGI,HOP-62 NSCLC,> 100 µM
same,TGI,LOX IMVI melanoma,> 100 µM
same,TGI,A549 NSCLC,> 100 µM
same,TGI,SNB-75 CNS,> 100 µM
same,TGI,NCI-H23 lung,> 100 µM
same,TGI,RXF 393 renal,> 100 µM
same,TGI,CCRF-CEM leukemia,> 100 µM
same,TGI,786-0 renal,> 100 µM
same,TGI,HCT-15 colon,> 100 µM
same,TGI,TK-10 renal,> 100 µM
same,TGI,KM12 colon,> 100 µM
same,TGI,COLO 205 colon,> 100 µM
same,TGI,A498 renal,> 100 µM
same,TGI,EKVX NSCLC,> 100 µM
same,TGI,DMS 114 small cell lung,> 100 µM
same,TGI,M14 melanoma,> 100 µM
same,TGI,LXFL 529 NSCLC,> 100 µM
same,TGI,OVCAR-4 ovarian,> 100 µM
same,TGI,HOP-18 NSCLC,> 100 µM
same,TGI,NCI-H460 lung,> 100 µM
same,TGI,MALME-3M melanoma,> 100 µM
same,TGI,SK-MEL-5 melanoma,> 100 µM
same,TGI,OVCAR-5 ovarian,> 100 µM
same,TGI,NCI-H522 lung,> 100 µM
same,TGI,SF-295 CNS,> 100 µM
same,TGI,SNB-78 CNS,> 100 µM
same,TGI,K-562 leukemia,> 100 µM
same,TGI,HT29 colon,> 100 µM
same,TGI,UACC-62 melanoma,> 100 µM
same,TGI,OVCAR-3 ovarian,87.1 µM
same,TGI,ACHN renal,> 100 µM
same,TGI,M19-MEL melanoma,> 100 µM
same,TGI,IGROV1 ovarian,> 100 µM
same,TGI,UO-31 renal,50.5 µM
same,TGI,U251 CNS,> 100 µM
same,TGI,NCI-H226 lung,> 100 µM
same,TGI,SK-OV-3 ovarian,> 100 µM
same,TGI,SN12C renal,> 100 µM
CC1(C)O[C@@H](CC/C=C/CO)[C@H](CC/C=C/CO)O1,TGI,HOP-92 NSCLC,> 100 µM
same,TGI,OVCAR-8 ovarian,> 100 µM
same,TGI,HCT-116 colon,> 100 µM
same,TGI,SNB-19 CNS,> 100 µM
same,TGI,DMS 273 small cell lung,> 100 µM
same,TGI,HCC-2998 colon,> 100 µM
same,TGI,UACC-257 melanoma,> 100 µM
same,TGI,XF 498 CNS,> 100 µM
same,TGI,HL-60(TB) leukemia,> 100 µM
same,TGI,CAKI-1 renal,> 100 µM
same,TGI,SF-539 CNS,> 100 µM
same,TGI,DLD-1 colon,> 100 µM
same,TGI,MOLT-4 leukemia,> 100 µM
same,TGI,SR leukemia,> 100 µM
same,TGI,KM20L2 colon,> 100 µM
same,TGI,SK-MEL-2 melanoma,> 100 µM
same,TGI,SK-MEL-28 melanoma,> 100 µM
same,TGI,RPMI-8226 leukemia,> 100 µM
same,TGI,SW-620 colon,> 100 µM
same,TGI,SF-268 CNS,> 100 µM
same,TGI,HOP-62 NSCLC,> 100 µM
same,TGI,LOX IMVI melanoma,> 100 µM
same,TGI,A549 NSCLC,> 100 µM
same,TGI,SNB-75 CNS,> 100 µM
same,TGI,NCI-H23 lung,> 100 µM
same,TGI,CCRF-CEM leukemia,> 100 µM
same,TGI,786-0 renal,> 100 µM
same,TGI,HCT-15 colon,> 100 µM
same,TGI,TK-10 renal,> 100 µM
same,TGI,KM12 colon,> 100 µM
same,TGI,COLO 205 colon,> 100 µM
same,TGI,A498 renal,> 100 µM
same,TGI,EKVX NSCLC,> 100 µM
same,TGI,DMS 114 small cell lung,> 100 µM
same,TGI,M14 melanoma,> 100 µM
same,TGI,LXFL 529 NSCLC,> 100 µM
same,TGI,OVCAR-4 ovarian,> 100 µM
same,TGI,HOP-18 NSCLC,> 100 µM
same,TGI,NCI-H460 lung,> 100 µM
same,TGI,MALME-3M melanoma,> 100 µM
same,TGI,SK-MEL-5 melanoma,> 100 µM
same,TGI,OVCAR-5 ovarian,> 100 µM
same,TGI,NCI-H522 lung,> 100 µM
same,TGI,SF-295 CNS,> 100 µM
same,TGI,SNB-78 CNS,> 100 µM
same,TGI,K-562 leukemia,> 100 µM
same,TGI,HT29 colon,> 100 µM
same,TGI,OVCAR-3 ovarian,> 100 µM
same,TGI,ACHN renal,> 100 µM
same,TGI,M19-MEL melanoma,> 100 µM
same,TGI,IGROV1 ovarian,> 100 µM
same,TGI,U251 CNS,> 100 µM
same,TGI,NCI-H226 lung,> 100 µM
same,TGI,SK-OV-3 ovarian,> 100 µM
same,TGI,SN12C renal,> 100 µM
